Laboratory results taken from patent US11952457B2, “Bioabsorbable resin for additive manufacturing with non-cytotoxic photoinitiator” (Carbon, Inc., priority 2021, dated 2024).

Key:
[1] = versus BAPO; cited from earlier work
[2] = solubility of dye in resin formulation; type: physicochemical; conditions: final resin formulation (oligomer, PC, DDFD)
Protocol: The C&D Green Dye #6 is added to the resin to increase the absorbance of the resin for higher resolution printing. […] To mix C&D Green Dye #6 into the resin, the dye is first solubilized in PC at 0.06 wt % at 80° C. The stock solution of 0.06 wt % dye in PC is added to the oligomer to achieve the desired 0.03% concentration in the final resin.
Crystals of the C&D Green Dye #6 may be observed in this resin. C&D Green Dye #6 tends to crystalize in the resin. To prevent crystal aggregation, this resin should be mixed fresh prior to printing.

SMILES | cytotoxicity relative to traditional UV photoinitiators such as BAPO [1] | solubility in the final formulation [2]
CC1(C)COC(=O)C1=O [DDFD, dihydro-4,4-dimethyl-2,3-furandione] | orders of magnitude less cytotoxic | –
Cc1ccc(Nc2ccc(Nc3ccc(C)cc3)c3c2C(=O)c2ccccc2C3=O)cc1 [C&D Green Dye #6, 1,4-bis(p-tolylamino)anthraquinone] | – | limited solubility
